According to US8981068B2, “Compositions of standardized mixtures for determining an amount of a nucleic acid” (Gene Express, Inc., priority 2005, dated 2015):

Tests used:
[1] = tested on: cytochrome p450 IA1 (CYPIA1); assay: Northern analysis of CYPIAI gene expression in β-napthoflavone-exposed BEP2D cells; type: cell-based, human; details: β-napthoflavone 10 μM, varying times, control 0.1% DMSO, 32P-labeled CYPIAI cDNA probe
Protocol: (§1) In a second set of experiments, multiplex competitive reverse transcriptase polymerase chain reaction (MC RT-PCR) with competitive templates were prepared by the Celi method to evaluate the cytochrome p450 (CYP) IAI gene in β-napthoflavone-exposed BEP2D cells. The induction of CYPIAI gene expression was evaluated using both MC RT-PCR with Celi competitive templates, and Northern analysis. Competitive templates were prepared for both the CYPIAI and GAPDH genes. The primers used to prepare the competitive template for GAPDH were: […]
RNA from BEP2D cells incubated for varying times with β-napthoflavone (10 μM) was either electrophoresed on a 1% LE formaldehyde denaturing gel for Northern analysis or MC RT-PCR amplified, as described above. For Northern analysis, following transfer of the RNA to GeneScreen, the filters were hybridized with ^32P-labeled CYPIAI cDNA.

[2] = tested on: cytochrome p450 (CYP) IAI gene; assay: MC RT-PCR with Celi competitive templates: induction of CYPIAI gene expression in β-napthoflavone-exposed BEP2D cells; type: cell-based, human; details: β-napthoflavone 10 μM, varying times, control 0.1% DMSO, cDNA loading matched by GAPDH native/competitive template bands
Protocol: as §1
The PCR amplification conditions were the same as described for experiments using the competitive templates prepared for GAPDH and GSHPx by the Higuchi method except the annealing temperature was 55 degrees centigrade and the amplification was carried out for 38 cycles.
Because the native and competitive templates separate without prior restriction endonuclease digestion, samples were taken directly from the PCR reaction tube and applied to ethidium bromide stained 3% Nusieve, 1% LE agarose gels. It was then possible to quantify the products by taking a negative photograph of the gel using Polaroid 665 positive/negative instant film, subjecting the negative photograph to densitometry. […]

CYPIAI gene expression by Northern analysis [1]: increase
band representing the native CYPIAI gene, exposed cells compared to control cells [2]: much more strongly represented
SMILES: O=c1cc(-c2ccccc2)oc2ccc3ccccc3c12 [β-napthoflavone]
